Assay results as given in patent US11806313B2, “Abiraterone acetate containing composition and application thereof” (Hunan Huize Biopharma S & T Co., Ltd, priority 2021, dated 2023).

Tests used:
[1] = assay type: physicochemical
Description: Therefore, the self-microemulsion system of the present invention can choose the mixture of glycerol monolinoleate (CC) and medium chain triglyceride (MCT) as the oil phase. […] Accordingly, when glycerol monolinoleate and medium chain triglyceride are used in combination as the oil phase, in order to ensure a larger drug loading capacity, the amount of CC in the oil phase should be as much as possible, while the amount of MCT should be as little as possible.
When PEG-40 hydrogenated castor oil (RH40) and 2-(2-ethoxyethoxy)ethanol (HP) are used in combination as the emulsion phase, in order to ensure the emulsification effect of the self-microemulsion system and to ensure a large drug loading capacity, one should increase the amount of RH40 in the emulsion phase while also reduce the amount of HP as much as possible.

[2] = cited from earlier work
[3] = cited from earlier work; remark: listed apart in the source
[4] = high-fat diet (57% fat, 825 calories)
[5] = low-fat diet (7% fat, 300 calories)

solubility in 2-(2-ethoxyethoxy)ethanol (HP) [1]: about 69.0 mg/g | solubility in PEG-40 hydrogenated castor oil (RH40) [1]: about 24.7 mg/g | solubility in glycerol monolinoleate (CC) [1]: about 62.9 mg/g | solubility in medium chain triglyceride (MCT) [1]: about 28.4 mg/g
SMILES: CC(=O)O[C@H]1CC[C@@]2(C)C(=CC[C@@H]3[C@@H]2CC[C@]2(C)C(c4cccnc4)=CC[C@@H]32)C1 [abiraterone acetate, (3β)-17-(3-pyridyl)androsta-5,16-dien-3-yl acetate]
solubility in water [2]: less than 0.01 mg/ml | increase of AUC0-∞ with food [3, 4]: ~10 times | increase of Cmax with food [3, 4]: about 17 times | increase of AUC0-∞ of abiraterone with food [3, 5]: ~5 times | increase of Cmax of abiraterone with food [3, 5]: about 7 times
